From patent US20240409585A1, “MACROCYCLIC IMMUNOMODULATORS” (priority 2021, published 2024)
Bridge positions count the residues as written; N and C are the ends. Square brackets hold non-standard residues; d marks the D form. Peptide text beside a SMILES is read from it. * marks the point of attachment. ξ: configuration not given here. Phe(4-COOH) = N[C@@H](Cc1ccc(C(=O)O)cc1)C(=O)O; Bip = N[C@@H](Cc1ccc(-c2ccccc2)cc1)C(=O)O; Phe(3-Me) = Cc1cccc(C[C@H](N)C(=O)O)c1; dBta = N[C@H](Cc1csc2ccccc12)C(=O)O; Val(3-OH) = CC(C)(O)[C@H](N)C(=O)O; Ala(cPr) = N[C@@H](CC1CC1)C(=O)O; aIle = CC[C@@H](C)[C@H](N)C(=O)O; 4Pal = N[C@@H](Cc1ccncc1)C(=O)O; Cha = N[C@@H](CC1CCCCC1)C(=O)O; Thr(3ξ) = CC(O)[C@H](N)C(=O)O; dNva = CCC[C@@H](N)C(=O)O; Carboxymethyl = O=C(O)C*; NMeA = CN[C@@H](C)C(=O)O; Dab = NCC[C@H](N)C(=O)O; Dap = NC[C@H](N)C(=O)O

What follows are compounds tested against T1, PE-labeled human PD-L1-Ig binding to Jurkat cell line over-expressing human PD-1 (Jurkat-PD-1) (Homo sapiens, UniProt Q15116) (assay: Jurkat-PD-1 Cell Binding High-Content Screening Assay (CBA): Method 1). Conditions: Jurkat-hPD-1 cells, PE-labeled PD-L1-Ig 20 nM final; read-out: Jurkat HPDL1 PD1 IC50 (uM) (Method 1).
T1 construct: expressed in transfected cells; host or cells: Jurkat
T1 sequence (Q15116 25-288): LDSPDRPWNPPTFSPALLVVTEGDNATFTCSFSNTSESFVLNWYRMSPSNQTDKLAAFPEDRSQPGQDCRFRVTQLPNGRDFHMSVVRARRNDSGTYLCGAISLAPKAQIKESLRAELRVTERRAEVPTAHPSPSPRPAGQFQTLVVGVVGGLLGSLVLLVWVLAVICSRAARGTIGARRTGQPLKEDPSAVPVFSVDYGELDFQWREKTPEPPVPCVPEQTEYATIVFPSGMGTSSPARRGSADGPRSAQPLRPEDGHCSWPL

IC50 | SMILES
0.13 µM | CC(C)C[C@H]1NC(=O)[C@H](C)N(C)C(=O)[C@H](C(C)(C)O)NC(=O)[C@H](Cc2ccc(-c3ccccc3)cc2)NC(=O)[C@H](C(C)(C)O)NC(=O)[C@H](Cc2c[nH]c3ccccc23)NC(=O)[C@H](CC(=O)O)NC(=O)[C@H](Cc2ccc(C(=O)O)cc2)NC(=O)[C@H](Cc2ccc(OCC(=O)O)cc2)NC(=O)CSC[C@@H](C(=O)N[C@@H](CCN)C(N)=O)NC(=O)[C@H](CCC(=O)O)NC(=O)[C@H](C(C)(C)O)NC(=O)[C@H](CC2CCCCC2)NC(=O)[C@H](CCN)NC1=O [Compound 1713] ({CH2CO}-Y(Carboxymethyl)[Phe(4-COOH)]DW[Val(3-OH)][Bip][Val(3-OH)][NMeA][dL][Dab][Cha][Val(3-OH)]EC[Dab]-NH2; thioether N-14)
0.02 µM | CC[C@H](C)[C@@H]1NC(=O)[C@H](Cc2ccc(-c3ccccc3)cc2)NC(=O)[C@H](C(C)C)NC(=O)[C@H](Cc2c[nH]c3ccccc23)NC(=O)[C@H](CC(=O)O)NC(=O)[C@H](Cc2ccncc2)NC(=O)[C@H](Cc2ccncc2)NC(=O)CSC[C@@H](C(=O)N[C@@H](C)C(N)=O)NC(=O)[C@H]([C@@H](C)O)NC(=O)[C@H](C(C)C)NC(=O)[C@H](CC(C)C)NC(=O)[C@H](CCN)NC(=O)[C@@H](CC(C)C)NC(=O)[C@H](C)N(C)C1=O [Compound 1410] ({CH2CO}-[4Pal][4Pal]DWV[Bip]I[NMeA][dL][Dab]LVTCA-NH2; thioether N-14)
0.08 µM | Cc1cccc(C[C@@H]2NC(=O)[C@H](CC(=O)O)NC(=O)[C@H](Cc3ccc(OCC(=O)O)cc3)NC(=O)[C@H](C(C)O)NC(=O)CSC[C@@H](C(N)=O)NC(=O)[C@H](C(C)O)NC(=O)[C@H](C(C)C)NC(=O)[C@H](CC3CCCCC3)NC(=O)[C@H](CCN)NC(=O)[C@@H](CC(C)C)NC(=O)[C@H](C)N(C)C(=O)[C@H](Cc3ccc(OCC(=O)O)cc3)NC(=O)[C@H](Cc3ccc(-c4ccccc4)cc3)NC(=O)[C@H](Cc3ccc(C(=O)O)cc3)NC2=O)c1 (stereo partly drawn) [Compound 2249] ({CH2CO}-[Thr(3ξ)]Y(Carboxymethyl)D[Phe(3-Me)][Phe(4-COOH)][Bip]Y(Carboxymethyl)[NMeA][dL][Dab][Cha]V[Thr(3ξ)]C-NH2; thioether N-14)
0.04 µM | CC(C)C[C@@H]1NC(=O)[C@H](CCCNC(=N)N)NC(=O)[C@@H](CC(C)C)NC(=O)[C@H](C)N(C)C(=O)[C@H](CCCNC(=N)N)NC(=O)[C@H](Cc2ccc(-c3ccccc3)cc2)NC(=O)[C@H](C(C)C)NC(=O)[C@H](Cc2c[nH]c3ccccc23)NC(=O)[C@H](CC(=O)O)NC(=O)[C@H](Cc2ccc(O)cc2)NC(=O)[C@H](CC(N)=O)NC(=O)CSC[C@@H](C(=O)NCC(N)=O)NC(=O)[C@H]([C@@H](C)O)NC(=O)[C@H](C(C)C)NC1=O [Compound 1244] ({CH2CO}-NYDWV[Bip]R[NMeA][dL]RLVTCG-NH2; thioether N-14)
0.07 µM | CC(C)C[C@H]1NC(=O)[C@H](C)N(C)C(=O)[C@H](CCCNC(=N)N)NC(=O)[C@H](Cc2ccc(-c3ccccc3)cc2)NC(=O)[C@H](C(C)C)NC(=O)[C@H](Cc2c[nH]c3ccccc23)NC(=O)[C@H](CC(=O)O)NC(=O)[C@H](Cc2ccc(O)cc2)NC(=O)[C@H](Cc2ccccc2)NC(=O)CSC[C@@H](C(=O)N[C@@H](C)C(N)=O)NC(=O)[C@H]([C@@H](C)O)NC(=O)[C@H](C(C)C)NC(=O)[C@H](CC2CC2)NC(=O)[C@H](CCCNC(=N)N)NC1=O [Compound 1111] ({CH2CO}-FYDWV[Bip]R[NMeA][dL]R[Ala(cPr)]VTCA-NH2; thioether N-14)
0.02 µM | Cc1cccc(C[C@@H]2NC(=O)[C@H](CC(=O)O)NC(=O)[C@H](Cc3ccc(OCC(=O)O)cc3)NC(=O)[C@H](C(C)O)NC(=O)CSC[C@@H](C(=O)N[C@@H](CCN)C(N)=O)NC(=O)[C@H](CO)NC(=O)[C@H](C(C)(C)O)NC(=O)[C@H](CC3CCCCC3)NC(=O)[C@H](CCN)NC(=O)[C@@H](CC(C)C)NC(=O)[C@H](C)N(C)C(=O)[C@H](Cc3ccc(OCC(=O)O)cc3)NC(=O)[C@H](Cc3ccc(-c4ccccc4)cc3)NC(=O)[C@H](Cc3ccc(OCC(=O)O)cc3)NC2=O)c1 (stereo partly drawn) [Compound 2149] ({CH2CO}-[Thr(3ξ)]Y(Carboxymethyl)D[Phe(3-Me)]Y(Carboxymethyl)[Bip]Y(Carboxymethyl)[NMeA][dL][Dab][Cha][Val(3-OH)]SC[Dab]-NH2; thioether N-14)
0.03 µM | CC(C)C[C@@H]1NC(=O)[C@H](CCN)NC(=O)[C@@H](CC(C)C)NC(=O)[C@H](C)N(C)C(=O)[C@H](CCCNC(=N)N)NC(=O)[C@H](Cc2ccc(-c3ccccc3)cc2)NC(=O)[C@H](C(C)C)NC(=O)[C@H](Cc2c[nH]c3ccccc23)NC(=O)[C@H](CC(=O)O)NC(=O)[C@H](Cc2ccc(O)cc2)NC(=O)[C@H](CN)NC(=O)CSC[C@@H](C(=O)N[C@@H](C)C(N)=O)NC(=O)[C@H]([C@@H](C)O)NC(=O)[C@H](C(C)C)NC1=O [Compound 1350] ({CH2CO}-[Dap]YDWV[Bip]R[NMeA][dL][Dab]LVTCA-NH2; thioether N-14)
0.14 µM | CC(C)C[C@@H]1NC(=O)[C@H](CCCNC(=N)N)NC(=O)[C@@H](CC(C)C)NC(=O)[C@H](C)N(C)C(=O)[C@H](CCC(=O)O)NC(=O)[C@H](Cc2ccc(-c3ccccc3)cc2)NC(=O)[C@H](C(C)C)NC(=O)[C@H](Cc2c[nH]c3ccccc23)NC(=O)[C@H](CC(=O)O)NC(=O)[C@H](Cc2ccc(O)cc2)NC(=O)[C@H](Cc2ccccc2)NC(=O)CSC[C@@H](C(=O)N[C@@H](CCC(=O)O)C(N)=O)NC(=O)[C@H]([C@@H](C)O)NC(=O)[C@H](C(C)C)NC1=O [Compound 1135] ({CH2CO}-FYDWV[Bip]E[NMeA][dL]RLVTCE-NH2; thioether N-14)
0.06 µM | CC(C)C[C@@H]1NC(=O)[C@H](Cc2c[nH]c3ccccc23)NC(=O)[C@H](CC(=O)O)NC(=O)[C@H](Cc2ccc(C(=O)O)cc2)NC(=O)[C@H](Cc2ccc(OCC(=O)O)cc2)NC(=O)CSC[C@@H](C(=O)N[C@H](C)C(N)=O)NC(=O)[C@H](CCC(=O)O)NC(=O)[C@H](C(C)(C)O)NC(=O)[C@H](CC2CCCCC2)NC(=O)[C@H](CCN)NC(=O)[C@@H](CC(C)C)NC(=O)[C@H](C)N(C)C(=O)[C@H](C(C)(C)O)NC(=O)[C@H](Cc2ccc(-c3ccccc3)cc2)NC1=O [Compound 1715] ({CH2CO}-Y(Carboxymethyl)[Phe(4-COOH)]DWL[Bip][Val(3-OH)][NMeA][dL][Dab][Cha][Val(3-OH)]EC[dA]-NH2; thioether N-14)
0.06 µM | CC[C@@H](C)[C@@H]1NC(=O)[C@H](Cc2ccc(-c3ccccc3)cc2)NC(=O)[C@H](CC(C)C)NC(=O)[C@H](Cc2cccc(C)c2)NC(=O)[C@H](CC(=O)O)NC(=O)[C@H](Cc2ccc(C(=O)O)cc2)NC(=O)[C@H](Cc2ccc(OCC(=O)O)cc2)NC(=O)CSC[C@@H](C(N)=O)NC(=O)[C@H](CO)NC(=O)[C@H](C(C)C)NC(=O)[C@H](CC(C)C)NC(=O)[C@H](CC(N)=O)NC(=O)[C@@H](CC(C)C)NC(=O)[C@H](C)N(C)C1=O [Compound 1639] ({CH2CO}-Y(Carboxymethyl)[Phe(4-COOH)]D[Phe(3-Me)]L[Bip][aIle][NMeA][dL]NLVSC-NH2; thioether N-14)
0.03 µM | Cc1cccc(C[C@@H]2NC(=O)[C@H](CC(=O)O)NC(=O)[C@H](Cc3ccc(OCC(=O)O)cc3)NC(=O)[C@H](Cc3ccc(OCC(=O)O)cc3)NC(=O)CSC[C@@H](C(N)=O)NC(=O)[C@H]([C@@H](C)O)NC(=O)[C@H](C(C)C)NC(=O)[C@H](CC3CCCCC3)NC(=O)[C@H](CCN)NC(=O)[C@@H](CC(C)C)NC(=O)[C@H](C)N(C)C(=O)[C@H](Cc3ccc(OCC(=O)O)cc3)NC(=O)[C@H](Cc3ccc(-c4ccccc4)cc3)NC(=O)[C@H](Cc3ccc(OCC(=O)O)cc3)NC2=O)c1 [Compound 1656] ({CH2CO}-Y(Carboxymethyl)Y(Carboxymethyl)D[Phe(3-Me)]Y(Carboxymethyl)[Bip]Y(Carboxymethyl)[NMeA][dL][Dab][Cha]VTC-NH2; thioether N-14)
0.34 µM | CC(C)C[C@@H]1NC(=O)[C@H](CCCNC(=N)N)NC(=O)[C@@H](Cc2csc3ccccc23)NC(=O)[C@H](C)N(C)C(=O)[C@H](CCCNC(=N)N)NC(=O)[C@H](Cc2ccc(-c3ccccc3)cc2)NC(=O)[C@H](C(C)C)NC(=O)[C@H](Cc2c[nH]c3ccccc23)NC(=O)[C@H](CC(=O)O)NC(=O)[C@H](Cc2ccc(O)cc2)NC(=O)[C@H](CC(N)=O)NC(=O)CSC[C@@H](C(=O)N[C@@H](C)C(N)=O)NC(=O)[C@H]([C@@H](C)O)NC(=O)[C@H](C(C)C)NC1=O [Compound 1181] ({CH2CO}-NYDWV[Bip]R[NMeA][dBta]RLVTCA-NH2; thioether N-14)
0.1 µM | CCC[C@H]1NC(=O)[C@H](C)N(C)C(=O)[C@H](CCCNC(=N)N)NC(=O)[C@H](Cc2ccc(-c3ccccc3)cc2)NC(=O)[C@H](C(C)C)NC(=O)[C@H](Cc2c[nH]c3ccccc23)NC(=O)[C@H](CC(=O)O)NC(=O)[C@H](Cc2ccc(O)cc2)NC(=O)[C@H](Cc2ccccc2)NC(=O)CSC[C@@H](C(=O)N[C@@H](C)C(N)=O)NC(=O)[C@H]([C@@H](C)O)NC(=O)[C@H](C(C)C)NC(=O)[C@H](CC(C)C)NC(=O)[C@H](CCCNC(=N)N)NC1=O [Compound 1064] ({CH2CO}-FYDWV[Bip]R[NMeA][dNva]RLVTCA-NH2; thioether N-14)
0.02 µM | Cc1cccc(C[C@@H]2NC(=O)[C@H](CC(=O)O)NC(=O)[C@H](Cc3ccc(OCC(=O)O)cc3)NC(=O)[C@H](Cc3ccncc3)NC(=O)CSC[C@@H](C(N)=O)NC(=O)[C@H]([C@@H](C)O)NC(=O)[C@H](C(C)C)NC(=O)[C@H](CC3CCCCC3)NC(=O)[C@H](CCN)NC(=O)[C@@H](CC(C)C)NC(=O)[C@H](C)N(C)C(=O)[C@H](Cc3ccc(OCC(=O)O)cc3)NC(=O)[C@H](Cc3ccc(-c4ccccc4)cc3)NC(=O)[C@H](Cc3ccc(OCC(=O)O)cc3)NC2=O)c1 [Compound 1660] ({CH2CO}-[4Pal]Y(Carboxymethyl)D[Phe(3-Me)]Y(Carboxymethyl)[Bip]Y(Carboxymethyl)[NMeA][dL][Dab][Cha]VTC-NH2; thioether N-14)
